Assay results as given in patent publication US6060046A, “Antifouling compositions” (Unisearch Limited, priority 1994, dated 2000).

Key:
[1] = test system: cyprids of the cosmopolitan fouling barnacle Balanus amphitrite; assay: Inhibition of settlement of barnacle cyprid larvae, metabolites dissolved in water; type: in vivo; conditions: 24 hr, based on FIGS. 2 and 3
Procedure: Settlement assays were carried out using cyprids of the cosmopolitan fouling barnacle Balanus amphitrite. The methods used were similar to those used previously (Rittschof et al, 1994, Willemson 1994). Adult brood stock were maintained under controlled light (15 hr light: 9 hr dark) and temperature (28° C.) conditions and fed larvae of the brine shrimp Artemia salina and the diatom Skeletonema costatum. Recently spawned nauplii of B. amphitrite were collected and reared on Skeletonema costatum under the same conditions as adult stocks until reaching cyprid stage after four to five days. Cyprid larvae were subsequently filtered from the culture and maintained in filtered seawater at 5° C. for five days prior to use in settlement assays.
Assays used purified metabolites at concentrations ranging from 100 μg to 0.1 ng per millilitre. […]
Tests were conducted by adding 45-65 cyprids to petri-dishes (47 mm) containing five mls of either test solution, filtered seawater control, or DMSO control. […] The dishes were then rinsed and the percent settlement of cyprids was determined by counting settled and non settled larvae.
The effects of Delisea pulchra metabolites on the settlement of barnacle cyprid larvae, the growth of bacteria and the settlement and germination of algal spores were analysed in two ways. […]

marine bacterium SW8 = assay: Inhibition of bacterial growth, marine isolate SW8; type: cell-based; conditions: c = control
Procedure: Assays to determine the antibacterial effect of Delisea metabolites used the marine isolate SW8 (Neu et al., 1991). […] Purified metabolites 1-4 were dissolved in ethyl acetate (10 mg/ml-10 μg/ml) and were added in volumes of 20 μl to sterilised McCartney bottles containing 19 mls of filter sterilised artificial seawater (ASW) medium supplemented with a trace vitamin and mineral solution (Schneider et al., 1994). Two reference compounds for antibacterial activity, the antibiotic gentamicin (Sigma)and a saturated copper (II) oxide solution, were also used in these tests. Following addition of metabolites, antibiotics or copper, the media was inoculated with SW8. The inoculum for the assay was taken from a continuous culture fermenter operating at a cell density of 10^7 cells/ml. The final concentration of metabolites and antibiotic tested ranged from 10 μg/ml to 10 ng/ml. Control bottles with media only, and media with 20 μl EtOAc added, were inoculated with SW8 and run concurrently with each experiment.
After mixing, 200 μl from each bottle was aseptically transferred to a well in a Nunc Tissue Culture plate (96 well). Plates were incubated aerobically at 30° C. with shaking. Growth was monitored by optical density (600 nm) every hour for 12 hours after which growth was monitored every four hours for a further 18 hours.
The effects of Delisea pulchra metabolites on the settlement of barnacle cyprid larvae, the growth of bacteria and the settlement and germination of algal spores were analysed in two ways. Firstly, we used Analysis of Variance (ANOVA) followed by Tukey's multiple comparison tests to determine which compounds, at which concentrations, had statistically significant effects on the test organisms. Analyses were done using the Statview II statistical package. These procedures enable us to determine the minimum concentration of a compound necessary to have some significant effect, and to look in a detailed way at variation in the effects of different compounds.

Compound | EC50 + 95% conf. int. (50% settlement inhibition) [1] | Compounds in order of increasing activity (growth inhibition) (marine bacterium SW8; 4 hours, 10 ng/mL) | Compounds in order of increasing activity (growth inhibition) (marine bacterium SW8; 4 hours, 100 ng/mL) | Compounds in order of increasing activity (growth inhibition) (marine bacterium SW8; 4 hours, 1.0 μg/mL) | Compounds in order of increasing activity (growth inhibition) (marine bacterium SW8; 4 hours, 10 μg/mL) | Compounds in order of increasing activity (growth inhibition) (marine bacterium SW8; 11.5 hours, 10 ng/mL) | Compounds in order of increasing activity (growth inhibition) (marine bacterium SW8; 11.5 hours, 100 ng/mL) | Compounds in order of increasing activity (growth inhibition) (marine bacterium SW8; 11.5 hours, 1.0 μg/mL) | Compounds in order of increasing activity (growth inhibition) (marine bacterium SW8; 11.5 hours, 10 μg/mL) | Compounds in order of increasing activity (growth inhibition) (marine bacterium SW8; third panel, time not given, 10 ng/mL) | Compounds in order of increasing activity (growth inhibition) (marine bacterium SW8; third panel, time not given, 100 ng/mL) | Compounds in order of increasing activity (growth inhibition) (marine bacterium SW8; third panel, time not given, 1.0 μg/mL) [c 1 3 4 gent] | Compounds in order of increasing activity (growth inhibition) (marine bacterium SW8; third panel, time not given, 10 μg/mL)
O=S(=O)([O-])[O-].[Cu+2] [CuSO4] | 0.40(0.25-0.77) μg/ml |  |  |  |  |  |  |  |  |  |  |  | 
gentamicin |  | gent c 4 2 1 3 | gent 4 c 2 3 1 | c gent 2 1 4 3 | c 1 gent 2 3 4 | gent c 2 4 1 3 | gent 4 2 c 1 3 | c gent 1 2 3 4 | c 1 2 gent 3 4 | gent 4 1 c 3 2 | gent 4 3 2 c 1 | 2 | c 1 2 gent 3 4
